Test results: patent US8722849B2, “Polypeptides” (Novo Nordisk A/S, priority 2011, dated 2014)
In brackets after ≈: the same amount, converted by molar mass. Where two headings read alike, the source gives them in different places. Starred links: 1 amine or outer side, 2 acyl side, 3 side chain; linkers in the order of their positions; H or OH if unused. Positions of bridges follow the written chain, without caps; N, C: chain ends. Residues, ends and D or L forms follow the SMILES beside them. *: point of attachment. C20 diacid = O=C(O)CCCCCCCCCCCCCCCCCCC(=O)*; γGlu = O=C(O)[C@H](CCC(=O)[*:2])N[*:1]

Assays:
[1] = system: food intake; experiment: Assay (I) efficacy testing on appetite (food intake), ad libitum fed rat model; assay type: in vivo, Sprague Dawley (SD) rats; conditions: 3 nmol/kg
How it was run: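 Food consumption was logged per animal every hour up to 7 h and again at 24 h (occasionally 48 h) after a single 0.01–3 mg/kg dose, given sc, po or ip at dark-phase onset. Ad libitum fed SD rats, 200–250 g, kept on inverted light/dark cycle; vehicle group included, outliers removed by Grubbs test.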

[2] = Assay (IV) determination of solubility; assay type: physicochemical
How it was run: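 Eight 100 mM buffers (glycylglycine pH 3.0–5.0, bistrispropane pH 6.0–8.0) each received an equal volume of polypeptide dissolved in water at ~500 nmol/ml. Soluble polypeptide was measured by HPLC following 18 hours at room temperature and centrifugation.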

[3] = bistrispropane buffer, pH 6, pH 6.0, read-out: Solubility pH 6.0
[4] = bistrispropane buffer, pH 6.5, pH 6.5, read-out: Solubility pH 6.5
[5] = bistrispropane buffer, pH 7, pH 7.0, 18 hours at room temperature, Table 3, read-out: Solubility pH 7.0
[6] = bistrispropane buffer, pH 7, pH 7.0, read-out: Solubility pH 7.0
[7] = bistrispropane buffer, pH 7.5, pH 7.5, read-out: Solubility pH 7.5
[8] = bistrispropane buffer, pH 8, pH 8.0, read-out: Solubility pH 8.0
[9] = glycylglycine buffer, pH 3, pH 3.0, read-out: Solubility pH 3.0
[10] = glycylglycine buffer, pH 4, pH 4.0, 18 hours at room temperature, Table 2, read-out: Solubility pH 4.0
[11] = glycylglycine buffer, pH 4, pH 4.0, read-out: Solubility pH 4.0
[12] = glycylglycine buffer, pH 5, pH 5.0, read-out: Solubility pH 5.0

| SMILES | Food intake reduction 0-24 h 3 nmol/kg (%) [1] | Food intake reduction 24-48 h 3 nmol/kg (%) [1] | solubility at 18 h [2, 3] | solubility at 18 h [2, 4] | solubility at 18 h [2, 5] | solubility at 18 h [2, 6] | solubility at 18 h [2, 7] | solubility at 18 h [2, 8] | solubility at 18 h [2, 9] | solubility at 18 h [2, 10] | solubility at 18 h [2, 11] | solubility at 18 h [2, 12] | solubility at 18 h ([2]; bistrispropane buffer, pH 7, pH 7.0, Table 8, read-out: Solubility pH 7.0) | solubility at 18 h ([2]; bistrispropane buffer, pH 7, pH 7.0, Table 9, read-out: Solubility pH 7.0) | solubility at 18 h ([2]; bistrispropane buffer, pH 7.5, pH 7.5, Table 9, read-out: Solubility pH 7.5) |
| --- | --- | --- | --- | --- | --- | --- | --- | --- | --- | --- | --- | --- | --- | --- | --- |
| CC[C@H](C)[C@H](NC(=O)[C@@H]1CCCN1C(=O)CNC(=O)[C@H](Cc1ccccc1)NC(=O)[C@H](CC(N)=O)NC(=O)[C@H](CC(N)=O)NC(=O)[C@H](CO)NC(=O)[C@H](CO)NC(=O)[C@H](Cc1c[nH]cn1)NC(=O)[C@H](Cc1c[nH]cn1)NC(=O)[C@H](CC(C)C)NC(=O)[C@H](Cc1ccccc1)NC(=O)[C@H](CCC(=O)O)NC(=O)[C@H](C)NC(=O)[C@H](CC(C)C)NC(=O)[C@H](CCCNC(=N)N)NC(=O)[C@H](CCC(N)=O)NC(=O)[C@@H](NC(=O)[C@H](C)NC(=O)[C@@H]1CSSC[C@H](NC(=O)[C@H](CCCCN)NC(=O)[C@H](CCC(=O)O)NC(=O)CC[C@H](NC(=O)CCCCCCCCCCCCCCCCCCC(=O)O)C(=O)O)C(=O)N[C@@H](CC(N)=O)C(=O)N[C@@H]([C@@H](C)O)C(=O)N[C@@H](C)C(=O)N[C@@H]([C@@H](C)O)C(=O)N1)[C@@H](C)O)C(=O)N[C@@H](CC(C)C)C(=O)N1CCC[C@H]1C(=O)N1CCC[C@H]1C(=O)N[C@H](C(=O)N[C@@H](CC(N)=O)C(=O)N[C@H](C(=O)NCC(=O)N[C@@H](CO)C(=O)N[C@@H](Cc1c[nH]cn1)C(=O)N[C@H](C(=O)N[C@@H](Cc1ccc(O)cc1)C(N)=O)[C@@H](C)O)C(C)C)[C@@H](C)O [Example 56, N-alpha-[(S)-4-Carboxy-4-(19-carboxynonadecanoylamino)butyryl]-Glu-[Glu14,His17,His35]-pramlintide] ({C20 diacid-γGlu}-EKCNTATCATQRLAEFLHHSSNNFGPILPPTNVGSHTY-NH2; disulfide 3-8 (inferred)) | 46% | 21% | > 200 µM | > 200 µM | > 200 µM | > 200 µM | > 200 µM | > 200 µM | > 200 µM | > 200 µM | > 200 µM | > 200 µM |  |  |  |
| CC[C@H](C)[C@H](NC(=O)[C@H](CCC(=O)O)NC(=O)CNC(=O)[C@H](Cc1ccccc1)NC(=O)[C@H](CC(N)=O)NC(=O)[C@H](CC(N)=O)NC(=O)[C@H](CO)NC(=O)[C@H](CO)NC(=O)[C@H](CCCNC(=N)N)NC(=O)[C@H](Cc1c[nH]cn1)NC(=O)[C@H](CC(C)C)NC(=O)[C@H](Cc1ccccc1)NC(=O)[C@H](CCC(=O)O)NC(=O)[C@H](C)NC(=O)[C@H](CC(C)C)NC(=O)[C@H](CCCNC(=N)N)NC(=O)[C@H](CCC(N)=O)NC(=O)[C@@H](NC(=O)[C@H](C)NC(=O)[C@@H]1CSSC[C@H](NC(=O)[C@H](Cc2c[nH]cn2)NC(=O)CC[C@H](NC(=O)CCCCCCCCCCCCCCCCCCC(=O)O)C(=O)O)C(=O)N[C@@H](CC(N)=O)C(=O)N[C@@H]([C@@H](C)O)C(=O)N[C@@H](C)C(=O)N[C@@H]([C@@H](C)O)C(=O)N1)[C@@H](C)O)C(=O)N[C@@H](CC(C)C)C(=O)N[C@@H](CO)C(=O)N[C@@H](CCCNC(=N)N)C(=O)N[C@H](C(=O)N[C@@H](CC(N)=O)C(=O)N[C@H](C(=O)NCC(=O)N[C@@H](CO)C(=O)N[C@@H](CC(N)=O)C(=O)N[C@H](C(=O)N[C@@H](Cc1ccc(O)cc1)C(N)=O)[C@@H](C)O)C(C)C)[C@@H](C)O [Example 7, N-alpha-[(S)-4-Carboxy-4-(19-carboxynonadecanoylamino)butyryl]-[His1,Glu14,His17,Arg18,Glu25,Ser28,Arg29]-pramlintide] ({C20 diacid-γGlu}-HCNTATCATQRLAEFLHRSSNNFGEILSRTNVGSNTY-NH2; disulfide 2-7 (inferred); C-terminus assumed) | 53% | 46% | 69 µM (≈ 315 µg/mL) | 32 µM (≈ 146 µg/mL) |  | 42 µM (≈ 192 µg/mL) | 89 µM (≈ 406 µg/mL) | 155 µM (≈ 708 µg/mL) | > 200 µM | > 200 µM | > 200 µM | 13 µM (≈ 59.3 µg/mL) |  |  |  |
| CC[C@H](C)[C@H](NC(=O)[C@@H]1CCCN1C(=O)CNC(=O)[C@H](Cc1ccccc1)NC(=O)[C@H](CC(N)=O)NC(=O)[C@H](CC(N)=O)NC(=O)[C@H](CO)NC(=O)[C@H](CO)NC(=O)[C@H](Cc1c[nH]cn1)NC(=O)[C@H](Cc1c[nH]cn1)NC(=O)[C@H](CC(C)C)NC(=O)[C@H](Cc1ccccc1)NC(=O)[C@H](CCC(=O)O)NC(=O)[C@H](C)NC(=O)[C@H](CC(C)C)NC(=O)[C@H](CCCNC(=N)N)NC(=O)[C@H](CCC(N)=O)NC(=O)[C@@H](NC(=O)[C@H](C)NC(=O)[C@@H]1CSSC[C@H](NC(=O)[C@H](Cc2c[nH]cn2)NC(=O)[C@H](Cc2c[nH]cn2)NC(=O)[C@H](Cc2c[nH]cn2)NC(=O)CC[C@H](NC(=O)CCCCCCCCCCCCCCCCCCC(=O)O)C(=O)O)C(=O)N[C@@H](CCCNC(=N)N)C(=O)N[C@@H]([C@@H](C)O)C(=O)N[C@@H](C)C(=O)N[C@@H]([C@@H](C)O)C(=O)N1)[C@@H](C)O)C(=O)N[C@@H](CC(C)C)C(=O)N1CCC[C@H]1C(=O)N1CCC[C@H]1C(=O)N[C@H](C(=O)N[C@@H](CC(N)=O)C(=O)N[C@H](C(=O)NCC(=O)N[C@@H](CO)C(=O)N[C@@H](CC(N)=O)C(=O)N[C@H](C(=O)N[C@@H](Cc1ccc(O)cc1)C(N)=O)[C@@H](C)O)C(C)C)[C@@H](C)O [Example 22, N-alpha-[(S)-4-Carboxy-4-(19-carboxynonadecanoylamino)butyryl]-His-His-[His1,Arg3,Glu14,His17]-pramlintide] ({C20 diacid-γGlu}-HHHCRTATCATQRLAEFLHHSSNNFGPILPPTNVGSNTY-NH2; disulfide 4-9 (inferred)) | 26% | 5% | > 200 µM | 57 µM (≈ 273 µg/mL) |  | 2 µM (≈ 9.56 µg/mL) | 1 µM (≈ 4.78 µg/mL) | 3 µM (≈ 14.3 µg/mL) | > 200 µM | > 200 µM | > 200 µM | > 200 µM |  |  |  |
| CC[C@H](C)[C@H](NC(=O)[C@@H]1CCCN1C(=O)CNC(=O)[C@H](Cc1ccccc1)NC(=O)[C@H](CC(N)=O)NC(=O)[C@H](CC(N)=O)NC(=O)[C@H](CO)NC(=O)[C@H](CO)NC(=O)[C@H](Cc1c[nH]cn1)NC(=O)[C@H](Cc1c[nH]cn1)NC(=O)[C@H](CC(C)C)NC(=O)[C@H](Cc1ccccc1)NC(=O)[C@H](CCC(=O)O)NC(=O)[C@H](C)NC(=O)[C@H](CC(C)C)NC(=O)[C@H](CCCNC(=N)N)NC(=O)[C@H](CCC(N)=O)NC(=O)[C@@H](NC(=O)[C@H](C)NC(=O)[C@@H]1CSSC[C@H](NC(=O)[C@H](CCCNC(=N)N)NC(=O)CNC(=O)CC[C@H](NC(=O)CCCCCCCCCCCCCCCCCCC(=O)O)C(=O)O)C(=O)N[C@@H](CC(N)=O)C(=O)N[C@@H]([C@@H](C)O)C(=O)N[C@@H](C)C(=O)N[C@@H]([C@@H](C)O)C(=O)N1)[C@@H](C)O)C(=O)N[C@@H](CC(C)C)C(=O)N1CCC[C@H]1C(=O)N1CCC[C@H]1C(=O)N[C@H](C(=O)N[C@@H](CC(N)=O)C(=O)N[C@H](C(=O)NCC(=O)N[C@@H](CO)C(=O)N[C@@H](CC(N)=O)C(=O)N[C@H](C(=O)N1CCC[C@H]1C(N)=O)[C@@H](C)O)C(C)C)[C@@H](C)O [Example 101, N-alpha-[(S)-4-Carboxy-4-(19-carboxynonadecanoylamino)butyryl]-Gly-[Arg1,Glu14,His17,Pro37]-pramlintide] ({C20 diacid-γGlu}-GRCNTATCATQRLAEFLHHSSNNFGPILPPTNVGSNTP-NH2; disulfide 3-8 (inferred)) | 70% | 90% | > 200 µM | > 200 µM | > 200 µM | > 200 µM | > 200 µM | > 200 µM | > 200 µM | > 200 µM | > 200 µM | > 200 µM | > 200 µM | > 200 µM | > 200 µM |
